From patent EP4678638A1, “NEW E3 UBIQUITIN LIGASE LIGAND, PROTEIN DEGRADATION AGENT AND USE THEREOF” (priority 2023, dated 2024)

These compounds were tested on H1975 (assay: CCK-8 proliferation, NCI-H1975 (H1975)). Settings: Homo sapiens, NCI-H1975; CCK-8; 96 hours; read-out: Inhibitory activity (IC50) on tumor cell proliferation, H1975.
Assay type: cell-based, Human
Description: The tumor cells used herein were cultured in a cell culture medium listed in table A1 at 37°C in an incubator with 5% CO2. Prior to experimentation, all cell lines used were correctly identified by STR profiling, and tested negative for mycoplasma contamination using a mycoplasma detection kit through routine screenings. Table A1. Tumor cells and cell culture medium used in the present disclosure
IC50 values of the compounds of the present disclosure (including the compounds in Table 1, and compounds of examples) were measured using the Meilun Cell Counting Kit-8 kit from Dalian Meilun Biotech Co., Ltd. Assay details are as follows: tumor cells were seeded in a 96-well plate at a density listed in Table A2. After 24h, 100 µL of the inoculated cells were treated with 0.5µL of the compounds of the present disclosure (including the compounds in Tables 1 and 2, and compounds of examples) at 10 different successively decreasing concentrations (starting at the highest concentration of 10µM; 5-fold serial dilutions). After the cells were treated with the compounds of the present disclosure for a period of time, the cell viability detection reagent was added to the culture medium for cell viability assessment according to the instructions provided with the CCK-8 kit. […] The growth inhibition of the compounds of the present disclosure on cells was plotted by Prism Graphpad software, and the IC50 values of the compounds of the present disclosure were calculated therefrom. […] Seeding protocol and treatment time for tumor cells

`O=C1CCC(c2ccc(CN3C4CCC3CN(c3ccc(-c5cc(F)c6c(c5)C(=O)N(C(C(=O)Nc5nccs5)c5ncn7c5CCC7)C6)cc3)C4)cc2)C(=O)N1` (centres unmarked) [GT-06252, 2-(6,7-dihydro-5H-pyrrolo[1,2-c]imidazol-1-yl)-2-(6-(4-(8-(4-(2,6-dioxopiperidin-3-yl)benzyl)-3,8-diazabicyclo[3.2.1]octan-3-yl)phenyl)-4-fluoro-1-oxoisoindolin-2-yl)-N-(thiazol-2-yl)acetamide] and `CN(Cc1ccc(C2CCC(=O)NC2=O)cn1)C1CCN(c2ccc(-c3cc(F)c4c(c3)C(=O)N(C(C(=O)Nc3nccs3)c3ncn5c3CCC5)C4)cc2)CC1` (centres unmarked) [GT-07385, 2-(6,7-dihydro-5H-pyrrolo[1,2-c]imidazol-1-yl)-2-(6-(4-(4-(((5-(2,6-dioxopiperidin-3-yl)pyridin-2-yl)methyl)(methyl)amino)piperidin-1-yl)phenyl)-4-fluoro-1-oxoisoindolin-2-yl)-N-(thiazol-2-yl)acetamide] fall in the same range of IC50: 1 to 10 nM for the first, 1 to 10 nM for the second.

`CN(Cc1cc(C2CCC(=O)NC2=O)cnc1F)C1CCN(c2ccc(-c3cc(F)c4c(c3)C(=O)N(C(C(=O)Nc3nccs3)c3ncn5c3CCC5)C4)cc2)CC1` (centres unmarked) [GT-07560, 2-(6,7-dihydro-5H-pyrrolo[1,2-c]imidazol-1-yl)-2-(6-(4-(4-(((5-(2,6-dioxopiperidin-3-yl)-2-fluoropyridin-3-yl)methyl)(methyl)amino)piperidin-1-yl)phenyl)-4-fluoro-1-oxoisoindolin-2-yl)-N-(thiazol-2-yl)acetamide] and `O=C1CCC(c2cnc(F)c(CN3CCN(c4ccc(-c5cc(F)c6c(c5)C(=O)N(C(C(=O)Nc5nccs5)c5ncn7c5CCC7)C6)cc4)CC3)c2)C(=O)N1` (centres unmarked) [GT-07490, 2-(6,7-dihydro-5H-pyrrolo[1,2-c]imidazol-1-yl)-2-(6-(4-(4-((5-(2,6-dioxopiperidin-3-yl)-2-fluoropyridin-3-yl)methyl)piperazin-1-yl)phenyl)-4-fluoro-1-oxoisoindolin-2-yl)-N-(thiazol-2-yl)acetamide] fall in the same range of IC50: 1 to 10 nM for the first, 1 to 10 nM for the second.

`O=C1CCN(c2cc(CN3CCN(c4ccc(-c5cc(F)c6c(c5)C(=O)N(C(C(=O)Nc5nccs5)c5ncn7c5CCC7)C6)cc4)CC3)c(F)cn2)C(=O)N1` (centres unmarked) [GT-07378, 2-(6,7-dihydro-5H-pyrrolo[1,2-c]imidazol-1-yl)-2-(6-(4-(4-((2-(2,4-dioxotetrahydropyrimidin-1(2H)-yl)-5-fluoropyridin-4-yl)methyl)piperazin-1-yl)phenyl)-4-fluoro-1-oxoisoindolin-2-yl)-N-(thiazol-2-yl)acetamide] and `O=C1CCN(c2cc(CN3CCN(c4ccc(-c5cc(F)c6c(c5)C(=O)N(C(C(=O)Nc5nccs5)c5ncn7c5CCC7)C6)cc4)CC3)ccn2)C(=O)N1` (centres unmarked) [GT-07379, 2-(6,7-dihydro-5H-pyrrolo[1,2-c]imidazol-1-yl)-2-(6-(4-(4-((2-(2,4-dioxotetrahydropyrimidin-1(2H)-yl)pyridin-4-yl)methyl)piperazin-1-yl)phenyl)-4-fluoro-1-oxoisoindolin-2-yl)-N-(thiazol-2-yl)acetamide] fall in the same range of IC50: 1 to 10 nM for the first, 1 to 10 nM for the second.

`CN(Cc1ccc(N2CCC(=O)NC2=O)cn1)C1CCN(c2ccc(-c3cc(F)c4c(c3)C(=O)N(C(C(=O)Nc3nccs3)c3ncn5c3CCC5)C4)cc2)CC1` (centres unmarked) [GT-05282, 2-(6,7-dihydro-5H-pyrrolo[1,2-c]imidazol-1-yl)-2-(6-(4-(4-(((5-(2,4-dioxotetrahydropyrimidin-1(2H)-yl)pyridin-2-yl)methyl)(methyl)amino)piperidin-1-yl)phenyl)-4-fluoro-1-oxoisoindolin-2-yl)-N-(thiazol-2-yl)acetamide] and `CN(Cc1ccc(N2CCC(=O)NC2=O)cc1)C1CCN(c2ccc(-c3cc(F)c4c(c3)C(=O)N(C(C(=O)Nc3nccs3)c3ncn5c3CCC5)C4)cc2)CC1` (centres unmarked) [GT-05219, 2-(6,7-dihydro-5H-pyrrolo[1,2-c]imidazol-1-yl)-2-(6-(4-(4-((4-(2,4-dioxotetrahydropyrimidin-1(2H)-yl)benzyl)(methyl)amino)piperidin-1-yl)phenyl)-4-fluoro-1-oxoisoindolin-2-yl)-N-(thiazol-2-yl)acetamide] fall in the same range of IC50: 1 to 10 nM for the first, 1 to 10 nM for the second.

`O=C1CCN(c2cc(CN3C[C@H]4C[C@@H]3CN4c3ccc(-c4cc(F)c5c(c4)C(=O)N(C(C(=O)Nc4nccs4)c4ncn6c4CCC6)C5)cc3)ccn2)C(=O)N1` (stereo partly drawn) [GT-07387, 2-(6,7-dihydro-5H-pyrrolo[1,2-c]imidazol-1-yl)-2-(6-(4-((1R,4R)-5-((2-(2,4-dioxotetrahydropyrimidin-1(2H)-yl)pyridin-4-yl)methyl)-2,5-diazabicyclo[2.2.1]heptan-2-yl)phenyl)-4-fluoro-1-oxoisoindolin-2-yl)-N-(thiazol-2-yl)acetamide] and `CN(Cc1cncc(N2CCC(=O)NC2=O)c1)C1CCN(c2ccc(-c3cc(F)c4c(c3)C(=O)N(C(C(=O)Nc3nccs3)c3ncn5c3CCC5)C4)cc2)CC1` (centres unmarked) [GT-07384, 2-(6,7-dihydro-5H-pyrrolo[1,2-c]imidazol-1-yl)-2-(6-(4-(4-(((5-(2,4-dioxotetrahydropyrimidin-1(2H)-yl)pyridin-3-yl)methyl)(methyl)amino)piperidin-1-yl)phenyl)-4-fluoro-1-oxoisoindolin-2-yl)-N-(thiazol-2-yl)acetamide] fall in the same range of IC50: 1 to 10 nM for the first, 1 to 10 nM for the second.

First: O=C1CCC(c2ccc(CN3CCN(c4ccc(-c5cc(F)c6c(c5)C(=O)N(C(C(=O)Nc5nccs5)c5ncn7c5CCC7)C6)cc4)CC3)nc2)C(=O)N1 (centres unmarked) [GT-07381, 2-(6,7-dihydro-5H-pyrrolo[1,2-c]imidazol-1-yl)-2-(6-(4-(4-((5-(2,6-dioxopiperidin-3-yl)pyridin-2-yl)methyl)piperazin-1-yl)phenyl)-4-fluoro-1-oxoisoindolin-2-yl)-N-(thiazol-2-yl)acetamide]
Second: O=C1CCC(Nc2ncccc2CN2CCN(c3ccc(-c4cc(F)c5c(c4)C(=O)N(C(C(=O)Nc4nccs4)c4ncn6c4CCC6)C5)cc3)CC2)C(=O)N1 (centres unmarked) [GT-07489, 2-(6,7-dihydro-5H-pyrrolo[1,2-c]imidazol-1-yl)-2-(6-(4-(4-((2-((2,6-dioxopiperidin-3-yl)amino)pyridin-3-yl)methyl)piperazin-1-yl)phenyl)-4-fluoro-1-oxoisoindolin-2-yl)-N-(thiazol-2-yl)acetamide]
The IC50 of the first is lower: 1 to 10 nM for the first, 10 to 50 nM for the second.

`O=C1CCN(c2ccc(CN3CCC(N4CCN(c5ccc(-c6cc(F)c7c(c6)C(=O)N(C(C(=O)Nc6nccs6)c6ncn8c6CCC8)C7)cc5)CC4)CC3)cc2)C(=O)N1` (centres unmarked) [GT-06327, 2-(6,7-dihydro-5H-pyrrolo[1,2-c]imidazol-1-yl)-2-(6-(4-(4-(1-(4-(2,4-dioxotetrahydropyrimidin-1(2H)-yl)benzyl)piperidin-4-yl)piperazin-1-yl)phenyl)-4-fluoro-1-oxoisoindolin-2-yl)-N-(thiazol-2-yl)acetamide] and `CN(Cc1cccc(N2CCC(=O)NC2=O)c1)C1CCN(c2ccc(-c3cc(F)c4c(c3)C(=O)N(C(C(=O)Nc3nccs3)c3ncn5c3CCC5)C4)cc2)CC1` (centres unmarked) [GT-05281, 2-(6,7-dihydro-5H-pyrrolo[1,2-c]imidazol-1-yl)-2-(6-(4-(4-((3-(2,4-dioxotetrahydropyrimidin-1(2H)-yl)benzyl)(methyl)amino)piperidin-1-yl)phenyl)-4-fluoro-1-oxoisoindolin-2-yl)-N-(thiazol-2-yl)acetamide] fall in the same range of IC50: 1 to 10 nM for the first, 1 to 10 nM for the second.
